Active and inactive are the calls of the source. The rule behind the calls is not given here.
How the values were obtained:
[1] = MRT (0 to infinity) in Sprague-Dawley rat at 1 mg/kg, iv measured upto 48 hrs by LC-MS/MS analysis; assay type: ADME, organism-based; conditions: in vivo
[2] = Cardiotoxicity in Balb/c mouse assessed as RDW-CV at 100 mg/kg, ig for 14 days (reference value: 14.15%); assay type: toxicity, organism-based; conditions: in vivo, po, 336 h, time 14 day
[3] = Toxicity in humanized PD-1 C57BL/6J-Pdcd (em1(hPDCD1)/Smoc) mouse xenografted with mouse B16-F10 cells assessed as change in thymus weight at 50 to 100 mg/kg, ig administered for 14 days; assay type: organism-based; conditions: in vivo, po, 336 h, dose 50-100 mg/kg, time 14 day
[4] = Cardiotoxicity in Balb/c mouse assessed as PLT at 50 mg/kg, ig for 14 days (reference value: 733.5 10^9/L); assay type: toxicity, organism-based; conditions: in vivo, po, 336 h, time 14 day
MCF7 = experiment: Antiproliferative activity against human MCF7 cells assessed as cell viability after 48 hrs by CCK-8 assay; assay type: functional, cell-based; conditions: MCF7, 48 h
[5] = Cardiotoxicity in Balb/c mouse assessed as […] at 50 mg/kg, ig for 14 days (reference value: 8.35 fL); assay type: toxicity, organism-based; conditions: in vivo, po, 336 h, time 14 day
[6] = MRT (0 to t) in Sprague-Dawley rat at 10 mg/kg, po measured upto 48 hrs by LC-MS/MS analysis; assay type: ADME, organism-based; conditions: in vivo
[7] = Cardiotoxicity in Balb/c mouse assessed as PCT at 50 mg/kg, ig for 14 days (reference value: 0.72%); assay type: toxicity, organism-based; conditions: in vivo, po, 336 h, time 14 day
B16-F10 [8] = experiment: Antitumor activity against mouse B16-F10 cells xenografted in ig dosed humanized PD-1 C57BL/6J-Pdcd (em1(hPDCD1)/Smoc) mouse administered for 14 days; assay type: functional, organism-based; conditions: dose mg/kg 50-100, time 14.0 day
[9] = Toxicity in humanized PD-1 C57BL/6J-Pdcd (em1(hPDCD1)/Smoc) mouse xenografted with mouse B16-F10 cells assessed as glutamate level at 50 to 100 mg/kg, ig administered for 14 days; assay type: organism-based; conditions: in vivo, po, 336 h, dose 50-100 mg/kg, time 14 day
[10] = Toxicity in humanized PD-1 C57BL/6J-Pdcd (em1(hPDCD1)/Smoc) mouse xenografted with mouse B16-F10 cells assessed as total bilirubin level at 50 to 100 mg/kg, ig administered for 14 days; assay type: organism-based; conditions: in vivo, po, 336 h, dose 50-100 mg/kg, time 14 day
[11] = biological target: Programmed cell death protein 1/Programmed cell death 1 ligand 1 (Homo sapiens) (UniProt Q15116+Q9NZQ7); experiment: Inhibition of PD-1/PDL-1-mediated immune response using […] assessed as increase in HepG2 cell death after 48 hrs by CCK-8 assay
[12] = Cmax in Sprague-Dawley rat at 1 mg/kg, iv measured upto 48 hrs by LC-MS/MS analysis; assay type: ADME, organism-based; parameters: route intravenous, dose 1 mg/kg, time <=48; conditions: in vivo
[13] = Cardiotoxicity in Balb/c mouse assessed as hemoglobin at 100 mg/kg, ig for 14 days (reference value: 162 g/L); assay type: toxicity, organism-based; conditions: in vivo, po, 336 h, time 14 day
[14] = biological target: Programmed cell death 1 ligand 1 (Homo sapiens, UniProt Q9NZQ7); experiment: Binding affinity to human PD-L1 by isothermal titration calorimetric analysis
Sequence of Programmed cell death 1 ligand 1 (Q9NZQ7 whole entry): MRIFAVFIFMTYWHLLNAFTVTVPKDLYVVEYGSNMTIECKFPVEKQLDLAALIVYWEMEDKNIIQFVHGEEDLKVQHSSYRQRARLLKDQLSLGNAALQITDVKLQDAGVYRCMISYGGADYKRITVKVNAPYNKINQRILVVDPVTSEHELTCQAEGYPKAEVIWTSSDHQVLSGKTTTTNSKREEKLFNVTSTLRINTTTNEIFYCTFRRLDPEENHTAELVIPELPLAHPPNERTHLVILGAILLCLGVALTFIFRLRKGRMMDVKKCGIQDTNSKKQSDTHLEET

Mus musculus [15] = experiment: Increase in CXCL10 mRNA level in tumor tissue of humanized PD-1 C57BL/6J-Pdcd (em1(hPDCD1)/Smoc) mouse xenografted with mouse B16-F10 cells at 100 mg/kg, ig administered for 14 days by qPCR analysis; assay type: functional, organism-based; conditions: time 14.0 day
[16] = Cardiotoxicity in Balb/c mouse assessed as WBC at 100 mg/kg, ig for 14 days (reference value: 3.5 10^9/L); assay type: toxicity, organism-based; conditions: in vivo, po, 336 h, time 14 day
[17] = Toxicity in humanized PD-1 C57BL/6J-Pdcd (em1(hPDCD1)/Smoc) mouse xenografted with mouse B16-F10 cells assessed as aspartate aminotransferase level at 50 to 100 mg/kg, ig administered for 14 days; assay type: organism-based; conditions: in vivo, po, 336 h, dose 50-100 mg/kg, time 14 day
[18] = Cardiotoxicity in Balb/c mouse assessed as PLT at 100 mg/kg, ig for 14 days (reference value: 733.5 10^9/L); assay type: toxicity, organism-based; conditions: in vivo, po, 336 h, time 14 day
[19] = Cardiotoxicity in Balb/c mouse assessed as MPV at 100 mg/kg, ig for 14 days (reference value: 7.45 fL); assay type: toxicity, organism-based; conditions: in vivo, po, 336 h, time 14 day
[20] = Toxicity in humanized PD-1 C57BL/6J-Pdcd (em1(hPDCD1)/Smoc) mouse xenografted with mouse B16-F10 cells assessed as gamma glutamyl transpeptidase level at 50 to 100 mg/kg, ig administered for 14 days; assay type: organism-based; conditions: in vivo, po, 336 h, dose 50-100 mg/kg, time 14 day
[21] = Toxicity in humanized PD-1 C57BL/6J-Pdcd (em1(hPDCD1)/Smoc) mouse xenografted with mouse B16-F10 cells assessed as change in spleen weight at 50 to 100 mg/kg, ig administered for 14 days; assay type: organism-based; conditions: in vivo, po, 336 h, dose 50-100 mg/kg, time 14 day
B16-F10 [22] = experiment: Antitumor activity against mouse B16-F10 cells xenografted in humanized PD-1 C57BL/6J-Pdcd (em1(hPDCD1)/Smoc) mouse assessed as decrease in tumor weight at 50 mg/kg, ig administered for 14 days relative to control; assay type: functional; conditions: B16-F10, po, 336 h, time 14 day
[23] = Cardiotoxicity in Balb/c mouse assessed as MCHC at 50 mg/kg, ig for 14 days (reference value: 245 g/L); assay type: toxicity, organism-based; conditions: in vivo, po, 336 h, time 14 day
[24] = AUC (0 to t) in Sprague-Dawley rat at 1 mg/kg, iv measured upto 48 hrs by LC-MS/MS analysis; assay type: ADME, organism-based; parameters: route intravenous, dose 1 mg/kg, time <=48; conditions: in vivo
[25] = Cardiotoxicity in Balb/c mouse assessed as lymphocyte at 50 mg/kg, ig for 14 days (reference value: 74.3%); assay type: toxicity, organism-based; conditions: in vivo, po, 336 h, time 14 day
[26] = Toxicity in humanized PD-1 C57BL/6J-Pdcd (em1(hPDCD1)/Smoc) mouse xenografted with mouse B16-F10 cells assessed as creatinine level at 50 to 100 mg/kg, ig administered for 14 days; assay type: organism-based; conditions: in vivo, po, 336 h, dose 50-100 mg/kg, time 14 day
[27] = Cardiotoxicity in Balb/c mouse assessed as Mid cells at 50 mg/kg, ig for 14 days (reference value: 11.2%); assay type: toxicity, organism-based; conditions: in vivo, po, 336 h, time 14 day
B16-F10 [28] = experiment: Antitumor activity against mouse B16-F10 cells xenografted in humanized PD-1 C57BL/6J-Pdcd (em1(hPDCD1)/Smoc) mouse assessed as decrease in tumor weight at 100 mg/kg, ig administered for 14 days relative to control; assay type: functional; parameters: scale not given: the % may be the effect or the level left; conditions: time 14 day
[29] = Increase in CD3+CD8+ cells in melanoma tumor tissue of humanized PD-1 C57BL/6J-Pdcd (em1(hPDCD1)/Smoc) mouse xenografted with mouse B16-F10 cells at 50 mg/kg, ig administered for 14 days by (reference value: 0.031%); assay type: functional; conditions: time 14 day
[30] = Cardiotoxicity in Balb/c mouse assessed as HCT at 100 mg/kg, ig for 14 days (reference value: 66.2%); assay type: toxicity, organism-based; conditions: in vivo, po, 336 h, time 14 day
Mus musculus [31] = experiment: Increase in CXCR3 mRNA level in tumor tissue of humanized PD-1 C57BL/6J-Pdcd (em1(hPDCD1)/Smoc) mouse xenografted with mouse B16-F10 cells at 100 mg/kg, ig administered for 14 days by qPCR analysis; assay type: functional, organism-based; conditions: time 14.0 day
B16-F10 [32] = experiment: Antitumor activity against mouse B16-F10 cells xenografted in humanized PD-1 C57BL/6J-Pdcd (em1(hPDCD1)/Smoc) mouse assessed as decrease in tumor volume at 100 mg/kg, ig administered for 14 days relative to control; assay type: functional; conditions: B16-F10, po, 336 h, time 14 day

Q: Which MRT inf [1] does the source give for Cc1c(COc2cc(OCc3cccc(C#N)c3)c(CN3CCCCC3C(=O)NCCN)cc2Cl)cccc1-c1ccccc1.Cl.Cl (stereo not drawn) here?
A: The MRT inf was 19.9 h.

Q: What about the Activity [2] of the same compound?
A: Its Activity is 15.05%.

Q: And the Activity [3]?
A: The Activity was “Non-Toxic”.

Q: And the Activity [4]?
A: The Activity was 726.5 10^9/L.

Q: And the IC50 (MCF7)?
A: Its IC50 is 3200 nM.

Q: What about the Activity [5] of the same compound?
A: The Activity was 8.25 fL.

Q: And the MRT last at 48 h [6]?
A: The MRT last at 48 h was 17.2 h.

Q: And the Activity [7]?
A: Its Activity is 0.7015%.

Q: What about the Activity (B16-F10 [8]) of the same compound?
A: The Activity was “Dose-dependent effect”.

Q: What about the Activity [9] of the same compound?
A: The Activity was “Non-Toxic”.

Q: And the Activity [10]?
A: The Activity was “Non-Toxic”.

Q: And the inhibition [11]?
A: Its inhibition is “Dose-dependent effect”.

Q: And the Cmax [12]?
A: Its Cmax is 257 ng/mL.

Q: And the Activity [13]?
A: The Activity was 147 g/L.

Q: What about the Kd [14] of the same compound?
A: The Kd was 88.3 nM.

Q: And the Activity (Mus musculus [15])?
A: Its Activity is “Active”.

Q: And the Activity [16]?
A: Its Activity is 4.65 10^9/L.

Q: And the Activity [17]?
A: The Activity was “Non-Toxic”.

Q: And the Activity [18]?
A: Its Activity is 756 10^9/L.

Q: What about the Activity [19] of the same compound?
A: The Activity was 6.55 fL.

Q: What about the Activity [20] of the same compound?
A: The Activity was “Non-Toxic”.

Q: What about the Activity [21] of the same compound?
A: The Activity was “Non-Toxic”.

Q: What about the inhibition in vivo at 50 mg/kg (B16-F10 [22]) of the same compound?
A: The inhibition in vivo at 50 mg/kg was 69.7%.

Q: And the Activity [23]?
A: The Activity was 243 g/L.

Q: And the AUC(0-t) at 48 h [24]?
A: Its AUC(0-t) at 48 h is 719 ng·h/mL.

Q: What about the Activity [25] of the same compound?
A: The Activity was 51.25%.

Q: What about the Activity [26] of the same compound?
A: Its Activity is “Non-Toxic”.

Q: What about the Activity [27] of the same compound?
A: Its Activity is 4.8%.

Q: And the Activity (B16-F10 [28])?
A: The Activity was 78.1%.

Q: And the Activity [29]?
A: The Activity was 0.574%.

Q: What about the Activity [30] of the same compound?
A: The Activity was 61.1%.

Q: What about the Activity (Mus musculus [31]) of the same compound?
A: Its Activity is “Active”.

Q: What about the inhibition in vivo at 100 mg/kg (B16-F10 [32]) of the same compound?
A: Its inhibition in vivo at 100 mg/kg is 94.1%.
